Values quoted from earlier work in US4801577A, “Nonapeptide and decapeptide analogs of LHRH useful as LHRH antagonists” (Syntex (U.S.A.) Inc., priority 1987, dated 1989).

Tested on: rat mast cells
Conditions: rat mast cells in vitro

Substance | ED50 for histamine release
(N-Ac-D-Nal(2)^1, D-αMe-pCl-Phe^2, D-Pal(3)^3, D-Arg^6, hArg(Et2)^8, D-Ala^10)LHRH | 4.9 µg/mL
(N-Ac-D-Nal(2)^1, D-pCl-Phe^2, D-Trp^3, D-Arg^6)LHRH | 0.2 µg/mL
(N-Ac-D-Nal(2)^1, D-pCl-Phe^2, D-Trp^3, Arg^5, D-Tyr^6, D-Ala^10)LHRH | 2 µg/mL
(N-Ac-D-Nal(2)^1, pCl-Phe^2, D-Trp^3, D-Lys(iPr)^8,Lys(iPr)^6, D-Ala^10)LHRH | 6.6 µg/mL
LHRH: natural releasing hormone LHRH, a decapeptide comprised of naturally occurring amino acids | 328 µg/mL
